Reference: patent US9012403B2, “Peptides as active agents to stabilize biological barriers” (XiberScience GmbH, priority 2010, dated 2015)
Marks after values point to notes of the source that are not given here.

Experiments:
[1] = tested on: Phosphorylated Myosin Light Chain (MLC) and actin stress fibers; assay: MLC phosphorylation and actin stress fiber formation in ECV304 cells (microscopy score); type: cell-based
Protocol: (§1) To measure MLC phosphorylation and actin stress fiber formation, the following cell lines were used: Caco-2, ECV304 and HpMec. All cells were grown at standard conditions (37° C., 5% CO2 and 95% rH). Culture Medium used: for Caco-2: DMEM+1 mM sodium pyruvate+20% FCS+1% Penicillin Streptomycin; for ECV 304: RPMI 1640+10% FCS+1% Penicillin Streptomycin; and for HpMec: IMDM+25 mM Hepes+10% Human Serum+1% Penicillin Streptomycin+1% L-Glutamine+ECGS/Heparin 2 ml. 4 h before the experiment, cells were starved by serum withdrawal. To induce GEF-activity, cells were stimulated with thrombin, LPS or PMA for the indicated time in presence or absence of 50 μg/ml XIB1-a or XIB1-b. After stimulation, cells were fixed using 4% PFA. Phospho MLC was detected by using the “rabbit anti phosphor-myosin light chain antibody” from Chemicon in a concentration of 3 μl/ml in PBS (Gibco) supplemented with 0.1% Triton X-100. As detection antibody, the Alexa 448 tagged “anti Rabbit IgG Antibody” from Invitrogen was used in a concentration of 0.5 μl/ml in PBS (Gibco) supplemented with 0.1% Triton X-100. Aktin was detected using TRITC-labeled Phalloidin in a concentration of 0.5 μl/ml in PBS (Gibco) supplemented with 0.1% Triton. Stained cells were analyzed by using a Zeiss Laser Scan microscope. Evaluation of the cyto-skeletal activation was performed by 2 independent observers that were blinded to the conditions. Evaluation criteria were set as follows:
(§2) Actin: parallel actin bundles absent=0; distinct bundle formation=1; prominent parallel bundles=2; Phospho-MLC: present at cell poles=0; slight co-localization with actin bundles=1; prominent co-localization with actin bundles=2

LPS induced lung injury = assay: LPS induced lung injury, bronchoalveolar lavage; type: in vivo; conditions: mice; for effect on barrier function in the LPS-inhalation model (neutrophils and albumin in BALF): equal in groups treated intraperitoneally and intratracheally; for counts of neutrophils in the BALF (mean +/ SD) / albumine content of BALFs (mean +/ SD): n = 20
Protocol: Male C57Bl/6 Mice (Charles River, Germany) were kept at the animal facility of the Medical University of Vienna, feed with standard diet and water was provided ad libitum. All interventions were performed according to the guide lines of AAALAC (Association for Assessment and Accreditation of Laboratory Animal Care). All experiment were approved by the Ethic committee of the Medical University of Vienna. Mice were anesthetized with isoflouran and treated with 100 ng of LPS (E. coli O55:B5, Sigma Aldrich) intranasally. XIB1-a or XIB1-b was applied either intra-peritoneally (2×2 mg/kg) or via inhalation (2×4 mg/kg), first application was performed concomitantly with LPS administration, the second application was performed 1 h after the LPS inhalation.
The trachea was exposed through a midline incision and canulated with a sterile 20-gauge catheter (BD Venflon™, Becton Dickinson Infusion Therapy, Helsingborg, Sweden). Bilateral broncho-alveolar lavage fluid (BALF) was gained by instilling two 0.5 ml aliquots of sterile saline. Approximately 0.9-1 ml BALF was retrieved per mouse. Total cell numbers were counted from each sample using a hemo-cytometer (Türck chamber), BALF differential cell counts were done on cytospin preparations stained with Giemsa. For protein measurements, BALF was diluted 1:2 in buffer containing 300 mM NaCl, 30 mM Tris, 2 mM MgCl2, 2 mM CaCl2, and Pepstatin A, Leupeptin and Aprotinin (all 20 ng/ml; pH 7.4). Protein levels in BALF were measured using the BCA protein kit according to the manufacturer's instructions (Pierce, Rockford, Ill.).
In addition, the same set-up as described above was used for comparing the impact of XIB1-b compared to Bβ15-42 (PLoS ONE (2009), 4(4): e5391), a peptide derived from fibrin having the sequence […] (SEQ ID NO: 41). Bβ15-42 was added in the same manner as XIB1-b. Again, protein content and cell count of BALF was measured.

GTP-bound RhoA = assay: GTP-associated active RhoA in Caco-2 membrane fraction (western blot); type: cell-based
Protocol: To measure the GTP-associated active RhoA, the following cell lines were used: Caco-2, ECV304 and HpMec. All cells were grown at standard conditions (37° C., 5% CO2 and 95% rH). 4 h before the experiment, cells were starved by serum withdrawal. To induce GEF-activity, cells were stimulated with thrombin, LPS or PMA for the indicated time in presence or absence of 50 μg/ml XIB1-a or XIB1-b. After stimulation, membrane fractions were prepared by using the commercial available “Compartemental Protein Extraction Kit” from Biochain Institutes. Membrane fractions were prepared according to the manufacturer instructions. The membrane fraction was separated on 15% polyacrylamide gel according to standard procedures of gel electrophoresis. The gels were afterwards blotted on a nitrocellulose membrane according to standard procedures of western blotting. GTP-bound RhoA was detected using RhoA-GTP monoclonal antibody from NewEast Inc. in a dilution of 1:5000. Protein bands were analyzed with the Dolphin-1D Gel analysis system (Wealtec).

[2] = tested on: Phosphorylated Myosin Light Chain (MLC) and actin stress fibers; assay: MLC phosphorylation and actin stress fiber formation in Caco-2 cells (microscopy score); type: cell-based
Protocol: as §1, §2

[3] = ECV 304, LPS 100 μg/ml, 1 min, with or without peptide 50 μg/ml
[4] = ECV 304, LPS 100 μg/ml, 5 min, with or without peptide 50 μg/ml
[5] = ECV 304, Thrombin 1 U/ml, 1 min, with or without peptide 50 μg/ml
[6] = ECV 304, Thrombin 1 U/ml, 5 min, with or without peptide 50 μg/ml
[7] = CaCo-2, PMA 1 μg/ml, 1 min, with or without peptide 50 μg/ml
[8] = CaCo-2, PMA 1 μg/ml, 5 min, with or without peptide 50 μg/ml
[9] = CaCo-2, no stimulus, 1 min, peptide 50 μg/ml
[10] = CaCo-2, no stimulus, 5 min, peptide 50 μg/ml
[11] = 6 h after LPS administration, intraperitoneal application (2×2 mg/kg)
[12] = 6 h after LPS administration, intratracheal application

Row | Sequence | MLC phosphorylation and actin stress fiber formation, evaluation score (Mean) [1, 3] | MLC phosphorylation and actin stress fiber formation, evaluation score (Mean) [1, 4] | MLC phosphorylation and actin stress fiber formation, evaluation score (Mean) [1, 5] | MLC phosphorylation and actin stress fiber formation, evaluation score (Mean) [1, 6] | MLC phosphorylation and actin stress fiber formation, evaluation score (Mean) ([1]; ECV 304, no stimulus, 1 min, peptide 50 μg/ml) | MLC phosphorylation and actin stress fiber formation, evaluation score (Mean) ([1]; ECV 304, no stimulus, 1 min, peptide 50 μg/ml, listed as XIB-a) | effect on barrier function in the LPS-inhalation model (neutrophils and albumin in BALF) (LPS induced lung injury) | GTP-bound RhoA, relative values compared to unstimulated control (Mean) (GTP-bound RhoA; [7]) | GTP-bound RhoA, relative values compared to unstimulated control (Mean) (GTP-bound RhoA; [8]) | GTP-bound RhoA, relative values compared to unstimulated control (Mean) (GTP-bound RhoA; [9]) | GTP-bound RhoA, relative values compared to unstimulated control (Mean) (GTP-bound RhoA; [10]) | MLC phosphorylation and actin stress fiber formation, evaluation score (Mean) [2, 7] | MLC phosphorylation and actin stress fiber formation, evaluation score (Mean) [2, 8] | MLC phosphorylation and actin stress fiber formation, evaluation score (Mean) [2, 9] | MLC phosphorylation and actin stress fiber formation, evaluation score (Mean) [2, 10] | counts of neutrophils in the BALF (mean +/ SD) (LPS induced lung injury; comparison with Bβ15-42 (Table 6), 6 h after LPS, intratracheal plus intraperitoneal application) | albumine content of BALFs (mean +/ SD) (LPS induced lung injury; [11]) [µg/mL] | counts of neutrophils in the BALF (mean +/ SD) (LPS induced lung injury; [11]) | albumine content of BALFs (mean +/ SD) (LPS induced lung injury; [12]) [µg/mL] | counts of neutrophils in the BALF (mean +/ SD) (LPS induced lung injury; [12])
1 | GRRPGGASGG (/note=“Description of artificial sequence cingulin-derived peptide XIB1-a”) | 1* | 1* | 1* | 1* | 1 | 0 | beneficial effect | 1.4* | 1.3* | 1 | 1 | 1* | 2* | 0 | 0 | – | – | – | – | –
2 | GRRPLGGISGG (/note=“Description of artificial sequence cingulin-derived peptide XIB1-b”) | 1* | 1* | 1* | 1* | – | – | beneficial effect | 1.4* | 1.3* | 1 | 1 | 1* | 2* | 0 | 0 | 15 +/− 15 neutrophils/ml (× 10^3) | 120 ± 12 | 25 +/− 22 neutrophils/ml (× 10^3) | 98 ± 20 | 28 +/− 23 neutrophils/ml (× 10^3)
